Assay results as given in paper doi:10.1101/2021.04.08.439011v1 (biorxiv, 2021).

Legend:
Conditions in all cases: 0.1 µM; binder
[1] = target: ACVR2A (Homo sapiens, UniProt P27037)
[2] = target: AMPK-alpha2 (Homo sapiens, UniProt P54646)
[3] = target: BRAF (Homo sapiens, UniProt P15056)
[4] = target: BRSK1 (Homo sapiens, UniProt Q8TDC3)
[5] = target: BUB1 (Homo sapiens, UniProt O43683)
[6] = target: CAMK2A (Homo sapiens, UniProt Q9UQM7)
[7] = target: CAMK2G (Homo sapiens, UniProt Q13555)
[8] = target: CAMKK1 (Homo sapiens, UniProt Q8N5S9)
[9] = target: CLK3 (Homo sapiens, UniProt P49761)
[10] = target: CSNK1A1 (Homo sapiens, UniProt P48729)
[11] = target: CSNK1G2 (Homo sapiens, UniProt P78368)
[12] = target: DCAMKL1 (Homo sapiens, UniProt O15075)
[13] = target: DSTYK (Homo sapiens, UniProt Q6XUX3)
[14] = target: EGFR (Homo sapiens, UniProt P00533)
[15] = target: EGFR(G719C) (Homo sapiens, UniProt P00533, G719C)
[16] = target: FES (Homo sapiens, UniProt P07332)
[17] = target: FLT3(N841I) (Homo sapiens, UniProt P36888, N841I)
[18] = target: IKK-epsilon (Homo sapiens, UniProt Q14164)
[19] = target: KIT(A829P) (Homo sapiens, UniProt P10721, A829P)
[20] = target: MARK1 (Homo sapiens, UniProt Q9P0L2)
[21] = target: MET (Homo sapiens, UniProt P08581)
[22] = target: MYLK3 (Homo sapiens, UniProt Q32MK0)
[23] = target: NIK (Homo sapiens, UniProt Q99558)
[24] = target: PAK3 (Homo sapiens, UniProt O75914)
[25] = target: PIK3CA(E542K) (Homo sapiens, UniProt P42336, E542K)
[26] = target: PNCK (Homo sapiens, UniProt Q6P2M8)
[27] = target: RET(M918T) (Homo sapiens, UniProt P07949, M918T)
[28] = target: ROCK2 (Homo sapiens, UniProt O75116)
[29] = target: SgK110 (Homo sapiens, UniProt P0C264)
[30] = target: TAOK2 (Homo sapiens, UniProt Q9UL54)
[31] = target: TGFBR2 (Homo sapiens, UniProt P37173)

Sequence of IKK-epsilon (Q14164 whole entry): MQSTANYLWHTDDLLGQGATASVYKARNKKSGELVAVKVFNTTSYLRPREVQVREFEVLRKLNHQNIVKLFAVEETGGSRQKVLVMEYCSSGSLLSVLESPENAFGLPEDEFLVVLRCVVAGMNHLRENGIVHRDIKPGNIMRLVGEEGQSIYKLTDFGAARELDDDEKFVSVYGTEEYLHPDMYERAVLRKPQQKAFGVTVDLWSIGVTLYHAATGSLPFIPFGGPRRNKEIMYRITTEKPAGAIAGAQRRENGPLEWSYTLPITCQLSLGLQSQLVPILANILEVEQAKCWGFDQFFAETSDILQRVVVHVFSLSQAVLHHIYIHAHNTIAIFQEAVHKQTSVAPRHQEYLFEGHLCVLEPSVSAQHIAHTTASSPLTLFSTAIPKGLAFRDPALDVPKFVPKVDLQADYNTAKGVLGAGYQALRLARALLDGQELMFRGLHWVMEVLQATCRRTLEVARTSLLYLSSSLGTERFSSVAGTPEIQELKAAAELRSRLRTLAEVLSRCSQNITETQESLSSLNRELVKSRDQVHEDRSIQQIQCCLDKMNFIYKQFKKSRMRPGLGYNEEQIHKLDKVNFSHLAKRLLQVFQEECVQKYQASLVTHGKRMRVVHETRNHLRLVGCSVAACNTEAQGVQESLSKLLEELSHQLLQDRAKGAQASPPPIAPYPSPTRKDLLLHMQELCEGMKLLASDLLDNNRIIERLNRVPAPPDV
Sequence of CAMKK1 (Q8N5S9 whole entry): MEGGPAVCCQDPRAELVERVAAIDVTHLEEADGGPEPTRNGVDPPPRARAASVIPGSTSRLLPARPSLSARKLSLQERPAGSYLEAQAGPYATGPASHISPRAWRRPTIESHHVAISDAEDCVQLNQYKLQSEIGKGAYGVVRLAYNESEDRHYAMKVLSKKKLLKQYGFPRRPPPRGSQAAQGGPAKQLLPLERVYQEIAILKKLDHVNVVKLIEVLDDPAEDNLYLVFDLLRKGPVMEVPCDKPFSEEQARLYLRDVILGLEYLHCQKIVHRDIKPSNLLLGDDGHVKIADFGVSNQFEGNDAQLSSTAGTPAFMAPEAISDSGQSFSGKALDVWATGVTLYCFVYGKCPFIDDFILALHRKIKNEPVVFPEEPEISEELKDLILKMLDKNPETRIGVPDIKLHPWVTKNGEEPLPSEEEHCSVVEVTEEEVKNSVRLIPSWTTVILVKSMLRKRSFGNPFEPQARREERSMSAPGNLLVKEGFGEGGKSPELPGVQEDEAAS
Sequence of CLK3 (P49761 whole entry): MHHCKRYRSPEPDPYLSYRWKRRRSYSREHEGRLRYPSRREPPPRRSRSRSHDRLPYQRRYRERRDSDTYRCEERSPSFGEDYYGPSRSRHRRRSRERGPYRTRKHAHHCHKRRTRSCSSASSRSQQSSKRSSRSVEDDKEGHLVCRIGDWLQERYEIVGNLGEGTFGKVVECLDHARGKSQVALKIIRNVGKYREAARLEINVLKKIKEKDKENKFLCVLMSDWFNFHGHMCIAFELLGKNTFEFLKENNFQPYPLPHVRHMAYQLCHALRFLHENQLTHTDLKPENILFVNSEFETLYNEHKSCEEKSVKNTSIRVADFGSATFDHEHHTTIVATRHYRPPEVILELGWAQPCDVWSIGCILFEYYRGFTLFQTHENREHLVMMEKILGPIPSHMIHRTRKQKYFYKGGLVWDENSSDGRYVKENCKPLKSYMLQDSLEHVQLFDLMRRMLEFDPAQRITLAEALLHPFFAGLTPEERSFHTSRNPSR
Sequence of PNCK (Q6P2M8 whole entry): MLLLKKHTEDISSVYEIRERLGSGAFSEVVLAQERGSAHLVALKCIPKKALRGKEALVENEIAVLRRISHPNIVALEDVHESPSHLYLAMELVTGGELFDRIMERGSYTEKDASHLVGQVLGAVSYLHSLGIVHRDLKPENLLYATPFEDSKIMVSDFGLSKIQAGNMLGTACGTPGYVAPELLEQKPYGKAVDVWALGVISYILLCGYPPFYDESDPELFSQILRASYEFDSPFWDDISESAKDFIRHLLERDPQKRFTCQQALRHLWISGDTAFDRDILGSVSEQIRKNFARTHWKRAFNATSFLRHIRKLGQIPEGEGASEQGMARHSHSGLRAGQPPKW
Sequence of PIK3CA(E542K) (P42336 whole entry E542K): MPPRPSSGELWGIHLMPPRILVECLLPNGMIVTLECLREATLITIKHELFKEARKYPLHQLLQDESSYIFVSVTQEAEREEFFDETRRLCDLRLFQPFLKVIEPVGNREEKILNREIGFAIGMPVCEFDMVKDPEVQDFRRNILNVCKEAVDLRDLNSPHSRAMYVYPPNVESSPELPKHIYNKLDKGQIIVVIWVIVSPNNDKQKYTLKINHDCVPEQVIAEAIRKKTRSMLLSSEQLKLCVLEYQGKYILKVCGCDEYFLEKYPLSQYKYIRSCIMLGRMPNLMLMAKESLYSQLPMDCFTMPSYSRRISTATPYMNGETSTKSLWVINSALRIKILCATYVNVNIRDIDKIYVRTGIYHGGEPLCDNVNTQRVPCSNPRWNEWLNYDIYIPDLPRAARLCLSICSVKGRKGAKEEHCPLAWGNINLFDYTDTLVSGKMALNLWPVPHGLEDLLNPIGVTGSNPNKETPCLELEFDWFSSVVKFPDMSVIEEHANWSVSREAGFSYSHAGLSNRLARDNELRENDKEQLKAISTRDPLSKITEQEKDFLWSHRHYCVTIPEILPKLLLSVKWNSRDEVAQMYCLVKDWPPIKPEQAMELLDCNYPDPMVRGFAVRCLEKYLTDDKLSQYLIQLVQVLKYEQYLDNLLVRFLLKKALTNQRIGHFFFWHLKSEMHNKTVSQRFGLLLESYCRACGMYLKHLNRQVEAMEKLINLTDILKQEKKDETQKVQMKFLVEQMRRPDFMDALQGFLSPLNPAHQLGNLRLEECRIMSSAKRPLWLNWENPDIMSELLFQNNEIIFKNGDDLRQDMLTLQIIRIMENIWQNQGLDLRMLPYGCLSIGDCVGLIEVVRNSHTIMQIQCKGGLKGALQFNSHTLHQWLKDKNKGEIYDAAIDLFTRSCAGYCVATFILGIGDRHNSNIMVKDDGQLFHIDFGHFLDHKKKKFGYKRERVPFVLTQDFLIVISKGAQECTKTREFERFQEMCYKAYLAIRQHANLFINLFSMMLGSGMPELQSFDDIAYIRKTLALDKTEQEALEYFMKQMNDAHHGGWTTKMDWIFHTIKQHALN
Sequence of MYLK3 (Q32MK0 whole entry): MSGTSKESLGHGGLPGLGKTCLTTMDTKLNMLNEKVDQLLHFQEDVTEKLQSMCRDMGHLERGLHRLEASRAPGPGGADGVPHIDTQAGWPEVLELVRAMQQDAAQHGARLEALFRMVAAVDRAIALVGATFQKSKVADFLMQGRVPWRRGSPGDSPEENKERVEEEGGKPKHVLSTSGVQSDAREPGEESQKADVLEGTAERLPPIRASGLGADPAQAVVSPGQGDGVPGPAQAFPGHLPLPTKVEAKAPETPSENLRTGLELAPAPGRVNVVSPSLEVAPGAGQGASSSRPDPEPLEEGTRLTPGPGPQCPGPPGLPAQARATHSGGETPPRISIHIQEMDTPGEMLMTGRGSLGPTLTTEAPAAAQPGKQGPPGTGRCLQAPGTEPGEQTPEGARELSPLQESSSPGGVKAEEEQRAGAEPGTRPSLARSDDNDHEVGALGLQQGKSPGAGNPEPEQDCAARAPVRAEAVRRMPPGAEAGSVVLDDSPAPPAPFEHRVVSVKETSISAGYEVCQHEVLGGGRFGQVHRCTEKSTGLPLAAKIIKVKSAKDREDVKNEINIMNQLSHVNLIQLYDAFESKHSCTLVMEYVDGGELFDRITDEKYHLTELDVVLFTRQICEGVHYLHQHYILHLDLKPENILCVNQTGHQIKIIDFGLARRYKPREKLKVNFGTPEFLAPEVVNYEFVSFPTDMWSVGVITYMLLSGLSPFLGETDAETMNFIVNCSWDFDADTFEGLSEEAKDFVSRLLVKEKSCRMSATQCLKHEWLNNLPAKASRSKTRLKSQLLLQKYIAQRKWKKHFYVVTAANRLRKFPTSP
Sequence of BRSK1 (Q8TDC3 whole entry): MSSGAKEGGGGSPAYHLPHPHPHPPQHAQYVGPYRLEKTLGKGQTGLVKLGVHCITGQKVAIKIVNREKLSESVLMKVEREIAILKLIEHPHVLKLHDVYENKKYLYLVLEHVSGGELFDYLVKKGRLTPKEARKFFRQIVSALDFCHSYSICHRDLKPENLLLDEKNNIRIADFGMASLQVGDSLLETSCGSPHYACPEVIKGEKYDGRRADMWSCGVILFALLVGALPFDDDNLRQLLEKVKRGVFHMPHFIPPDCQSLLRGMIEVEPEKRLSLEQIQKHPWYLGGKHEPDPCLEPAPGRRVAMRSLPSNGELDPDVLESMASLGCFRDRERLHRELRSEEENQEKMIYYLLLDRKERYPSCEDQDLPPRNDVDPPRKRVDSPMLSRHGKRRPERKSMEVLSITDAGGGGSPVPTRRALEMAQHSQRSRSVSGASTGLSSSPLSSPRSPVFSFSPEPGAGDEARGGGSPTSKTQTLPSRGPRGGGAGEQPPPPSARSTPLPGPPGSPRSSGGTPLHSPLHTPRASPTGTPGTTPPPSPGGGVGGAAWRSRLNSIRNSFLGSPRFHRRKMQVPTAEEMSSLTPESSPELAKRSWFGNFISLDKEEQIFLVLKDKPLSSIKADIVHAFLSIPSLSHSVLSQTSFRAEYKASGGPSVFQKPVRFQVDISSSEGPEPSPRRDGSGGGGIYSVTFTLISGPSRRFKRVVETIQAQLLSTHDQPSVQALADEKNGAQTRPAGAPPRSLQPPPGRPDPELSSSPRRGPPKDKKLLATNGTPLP

CNc1ncc2cc(-c3ccc(-c4cccc(C)n4)cc3Cl)c(=O)n(C[C@H]3OC[C@H](N)CO3)c2n1 [compound 6, G-5555]
Percent Control [1]: 100% | Percent Control [2]: 93% | Percent Control [3]: 100% | Percent Control [4]: 100% | Percent Control [5]: 100% | Percent Control [6]: 79% | Percent Control [7]: 100% | Percent Control [8]: 100% | Percent Control [9]: 100% | Percent Control [10]: 100% | Percent Control [11]: 100% | Percent Control [12]: 80% | Percent Control [13]: 90% | Percent Control [14]: 100% | Percent Control [15]: 100% | Percent Control [16]: 100% | Percent Control [17]: 100% | Percent Control [18]: 100% | Percent Control [19]: 81% | Percent Control [20]: 100% | Percent Control [21]: 89% | Percent Control [22]: 74% | Percent Control [23]: 100% | Percent Control [24]: 100% | Percent Control [25]: 89% | Percent Control [26]: 97% | Percent Control [27]: 100% | Percent Control [28]: 94% | Percent Control [29]: 56% | Percent Control [30]: 99% | Percent Control [31]: 100%
